Values of other authors in patent US20260078132A1, “SOLID FORMS OF AN INHIBITOR OF HIF AND METHODS OF USING SAME” (ONCOSPHERIX INC., priority 2022, published 2026).

Legend:
[1] = target: T1, p300 (Homo sapiens, UniProt Q09472)
[2] = target: T1, p300; remark: listed apart in the source

T1 sequence (Q09472 whole entry, species assumed): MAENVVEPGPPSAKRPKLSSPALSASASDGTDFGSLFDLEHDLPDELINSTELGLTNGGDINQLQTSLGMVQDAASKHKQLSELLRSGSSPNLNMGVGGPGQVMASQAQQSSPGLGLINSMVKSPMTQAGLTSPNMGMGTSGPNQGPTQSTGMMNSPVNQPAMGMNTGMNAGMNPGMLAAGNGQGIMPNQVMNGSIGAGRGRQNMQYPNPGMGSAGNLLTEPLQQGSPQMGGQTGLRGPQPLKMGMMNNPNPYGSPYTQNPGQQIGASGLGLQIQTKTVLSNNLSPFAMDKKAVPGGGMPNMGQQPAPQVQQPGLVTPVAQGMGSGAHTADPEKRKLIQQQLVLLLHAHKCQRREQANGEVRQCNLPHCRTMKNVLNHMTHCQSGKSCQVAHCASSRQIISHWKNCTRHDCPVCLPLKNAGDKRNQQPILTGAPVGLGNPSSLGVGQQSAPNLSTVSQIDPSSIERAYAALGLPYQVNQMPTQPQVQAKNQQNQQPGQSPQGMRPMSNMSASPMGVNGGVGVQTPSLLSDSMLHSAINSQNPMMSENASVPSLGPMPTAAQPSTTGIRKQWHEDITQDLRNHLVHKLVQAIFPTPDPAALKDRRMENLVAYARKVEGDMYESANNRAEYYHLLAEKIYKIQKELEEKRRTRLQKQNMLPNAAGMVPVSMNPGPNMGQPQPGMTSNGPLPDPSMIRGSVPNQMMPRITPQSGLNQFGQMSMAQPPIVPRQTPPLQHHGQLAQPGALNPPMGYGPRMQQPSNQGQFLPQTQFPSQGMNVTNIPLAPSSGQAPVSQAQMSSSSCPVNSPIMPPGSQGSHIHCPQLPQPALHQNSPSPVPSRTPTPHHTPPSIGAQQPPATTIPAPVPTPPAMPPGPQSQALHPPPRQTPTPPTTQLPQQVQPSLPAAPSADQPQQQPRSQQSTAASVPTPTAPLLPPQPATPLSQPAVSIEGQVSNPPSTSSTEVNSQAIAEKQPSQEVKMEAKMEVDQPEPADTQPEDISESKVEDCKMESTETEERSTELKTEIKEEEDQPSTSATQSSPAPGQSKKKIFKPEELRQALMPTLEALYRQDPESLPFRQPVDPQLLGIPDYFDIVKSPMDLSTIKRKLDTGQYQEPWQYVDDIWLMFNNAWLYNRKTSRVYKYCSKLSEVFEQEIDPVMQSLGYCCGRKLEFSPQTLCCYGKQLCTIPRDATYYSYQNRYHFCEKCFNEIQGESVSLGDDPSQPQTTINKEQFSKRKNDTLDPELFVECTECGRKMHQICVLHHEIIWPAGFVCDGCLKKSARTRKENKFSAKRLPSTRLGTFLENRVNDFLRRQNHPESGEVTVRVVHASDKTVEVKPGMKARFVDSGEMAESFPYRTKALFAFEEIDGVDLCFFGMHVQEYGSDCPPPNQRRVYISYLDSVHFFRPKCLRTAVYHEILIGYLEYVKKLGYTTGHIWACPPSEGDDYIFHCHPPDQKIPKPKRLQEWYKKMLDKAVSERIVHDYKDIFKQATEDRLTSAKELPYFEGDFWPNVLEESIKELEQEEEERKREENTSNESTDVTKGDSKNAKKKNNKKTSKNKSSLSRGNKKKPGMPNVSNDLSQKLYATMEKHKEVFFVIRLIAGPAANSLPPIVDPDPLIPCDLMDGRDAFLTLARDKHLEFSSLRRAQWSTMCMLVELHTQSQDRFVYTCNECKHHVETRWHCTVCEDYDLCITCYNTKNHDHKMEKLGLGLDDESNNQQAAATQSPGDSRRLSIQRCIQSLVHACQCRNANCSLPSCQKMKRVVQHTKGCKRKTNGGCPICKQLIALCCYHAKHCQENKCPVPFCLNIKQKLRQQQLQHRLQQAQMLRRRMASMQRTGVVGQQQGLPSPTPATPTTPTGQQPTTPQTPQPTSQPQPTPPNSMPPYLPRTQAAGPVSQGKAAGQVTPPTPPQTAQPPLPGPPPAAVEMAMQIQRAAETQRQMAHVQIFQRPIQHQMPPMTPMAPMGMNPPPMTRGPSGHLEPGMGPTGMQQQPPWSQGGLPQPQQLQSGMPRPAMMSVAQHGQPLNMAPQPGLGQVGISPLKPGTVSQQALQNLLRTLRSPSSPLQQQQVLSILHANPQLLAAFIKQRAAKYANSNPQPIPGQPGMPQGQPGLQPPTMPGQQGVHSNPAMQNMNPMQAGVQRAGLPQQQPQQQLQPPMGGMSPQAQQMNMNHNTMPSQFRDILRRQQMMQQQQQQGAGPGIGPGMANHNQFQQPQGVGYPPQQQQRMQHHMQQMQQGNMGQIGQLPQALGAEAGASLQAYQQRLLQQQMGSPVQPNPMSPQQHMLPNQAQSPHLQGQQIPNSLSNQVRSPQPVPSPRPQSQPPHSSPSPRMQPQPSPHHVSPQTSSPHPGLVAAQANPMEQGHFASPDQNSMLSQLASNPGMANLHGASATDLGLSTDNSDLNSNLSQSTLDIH

pull-down of p300 [1]: pull-down of p300 by Compound 9 | binding to p300 [2]: binding of Compound 9 to p300
Structure (SMILES): COc1ccc(S(=O)(=O)N(Cc2ccc3c(n2)C=CC(C)(C)O3)C2CCC2)cc1OC [Compound 9, N-Cyclobutyl-N-((2,2-dimethyl-2H-pyrano[3,2-b]pyridin-6-yl)methyl)-3,4-dimethoxybenzenesulfonamide]
